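Values below derive from 48-hour exposures of cells grown in 96-well plates, with endpoints linearly interpolated between the two concentrations bracketing the appropriate inhibition level. GI50 is the concentration that inhibits growth by half.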 Calls of active or inactive are those of the source. No stated cut-off is given here; in the data, active = GI50 up to about 1.1 µM and inactive = higher.
Key:
Test in all cases: growth of human tumour cells (NCI), 48 h
NCI-H522 = test system: NCI-H522
SNB-75 = test system: SNB-75
UACC-62 = test system: UACC-62
EKVX = test system: EKVX
SF-295 = test system: SF-295
MDA-MB-231 = test system: MDA-MB-231
SF-539 = test system: SF-539
PC-3 = test system: PC-3
A498 = test system: A498
SW-620 = test system: SW-620
A549 = test system: A549
SR = test system: SR
T47D = test system: T47D
HOP-92 = test system: HOP-92
HT-29 = test system: HT-29
OVCAR-3 = test system: OVCAR-3
HOP-62 = test system: HOP-62
DU-145 = test system: DU-145
U-251 = test system: U-251
NCI-H226 = test system: NCI-H226
UACC-257 = test system: UACC-257
SNB-19 = test system: SNB-19
Hs-578T = test system: Hs-578T
OVCAR-5 = test system: OVCAR-5
CCRF-CEM = test system: CCRF-CEM
M14 = test system: M14
UO-31 = test system: UO-31
MDA-MB-435 = test system: MDA-MB-435
KM12 = test system: KM12
SK-OV-3 = test system: SK-OV-3
NCI-H23 = test system: NCI-H23
IGROV-1 = test system: IGROV-1
ACHN = test system: ACHN
RXF 393 = test system: RXF 393
NCI-H460 = test system: NCI-H460
HCT-15 = test system: HCT-15
786-0 = test system: 786-0
SF-268 = test system: SF-268
K562 = test system: K562
BT-549 = test system: BT-549
SK-MEL-28 = test system: SK-MEL-28
OVCAR-4 = test system: OVCAR-4
TK-10 = test system: TK-10
CAKI-1 = test system: CAKI-1
OVCAR-8 = test system: OVCAR-8
SK-MEL-2 = test system: SK-MEL-2
MDA-N = test system: MDA-N
COLO 205 = test system: COLO 205
HCC 2998 = test system: HCC 2998
Malme-3M = test system: Malme-3M
SN12C = test system: SN12C
HCT-116 = test system: HCT-116
RPMI-8226 = test system: RPMI-8226
MCF7 = test system: MCF7
LOX IMVI = test system: LOX IMVI
HL-60 = test system: HL-60
MOLT-4 = test system: MOLT-4
SK-MEL-5 = test system: SK-MEL-5

Measured: GI50

C=C1CC23CCC4C(C)(C(=O)O)CCCC4(C)C2CCC1C3 (configuration not stated)
36.2 µM: HCT-15
inactive: NCI-H522 23.8 µM | SNB-75 47.8 µM | UACC-62 52.4 µM | EKVX 20.6 µM | SF-295 35.3 µM | MDA-MB-231 25.9 µM | SF-539 74 µM | PC-3 37.7 µM | A498 39.5 µM | SW-620 30.3 µM | A549 35.5 µM | SR 33.3 µM | T47D 38 µM | HOP-92 32.8 µM | HT-29 42.7 µM | OVCAR-3 30.4 µM | HOP-62 > 100 µM | DU-145 65.3 µM | U-251 48.1 µM | NCI-H226 55.7 µM | UACC-257 36.8 µM | SNB-19 53.1 µM | Hs-578T 44.3 µM | OVCAR-5 95.3 µM | CCRF-CEM 25.1 µM | M14 56 µM | UO-31 28.8 µM | MDA-MB-435 62.1 µM | KM12 41.6 µM | SK-OV-3 44.5 µM | NCI-H23 41.9 µM | IGROV-1 24.4 µM | ACHN 36.5 µM | RXF 393 33.5 µM | NCI-H460 21 µM | 786-0 40.6 µM | SF-268 63.1 µM | K562 46.3 µM | BT-549 26.3 µM | SK-MEL-28 > 100 µM | OVCAR-4 58.5 µM | TK-10 38.4 µM | CAKI-1 22.3 µM | OVCAR-8 41.7 µM | SK-MEL-2 42.3 µM | MDA-N 64 µM | COLO 205 19.7 µM | HCC 2998 17.1 µM | Malme-3M 94 µM | SN12C 38 µM | HCT-116 32.7 µM | RPMI-8226 47.4 µM | MCF7 47.3 µM | LOX IMVI 30.7 µM

CCN(CC)c1ccc2cc(-c3csc(C)n3)c(=O)oc2c1
inactive: UACC-62 52.8 µM | EKVX > 100 µM | SF-295 47 µM | MDA-MB-231 71.8 µM | SF-539 77.3 µM | PC-3 43.5 µM | SW-620 > 100 µM | A549 > 100 µM | SR 62.2 µM | T47D 2.14 µM | HOP-92 27.4 µM | HT-29 5.75 µM | HOP-62 30.6 µM | DU-145 > 100 µM | HL-60 95.3 µM | U-251 57.7 µM | NCI-H226 57.4 µM | UACC-257 77.8 µM | SNB-19 59.7 µM | Hs-578T 25.7 µM | OVCAR-5 > 100 µM | CCRF-CEM > 100 µM | M14 > 100 µM | UO-31 > 100 µM | MDA-MB-435 42.9 µM | KM12 13.5 µM | SK-OV-3 > 100 µM | IGROV-1 45.3 µM | ACHN 70.3 µM | RXF 393 37.3 µM | NCI-H460 > 100 µM | 786-0 39.2 µM | SF-268 81.3 µM | K562 > 100 µM | BT-549 28.2 µM | SK-MEL-28 > 100 µM | OVCAR-4 34.6 µM | TK-10 54.7 µM | CAKI-1 > 100 µM | SK-MEL-2 > 100 µM | COLO 205 > 100 µM | HCC 2998 58.5 µM | MOLT-4 > 100 µM | SN12C > 100 µM | HCT-116 69.8 µM | RPMI-8226 > 100 µM | MCF7 > 100 µM | LOX IMVI 67.3 µM | SK-MEL-5 37.9 µM
> 100 µM: HCT-15
active: SNB-75 0.0585 µM | MDA-N 0.719 µM
